Assay results as given in patent EP3492067A1, “TYPE-17 COLLAGEN PRODUCTION PROMOTER” (Tomoike Industrial (H.K.) Limited, priority 2016, dated 2018).
Converted amounts (≈) assume the structure as drawn.

Columns and labels:
physchem = settings: distilled water
Procedure: (§1) A test for confirming water solubility of the pterostilbene glycoside described above was performed. More specifically, solubility in 100 ml of distilled water at room temperature was measured. Pterostilbene (aglycone) was used as a control.

Type-17 collagen [1] = settings: eft-400 skin model
Procedure: (§2) A tissue containing DMSO was prepared as a control.
(§3) The lysates of cultured tissue were subjected to western blotting using an anti-Type-17 collagen antibody (ab95123, Abcam).

Type-17 collagen [2] = test: Western blotting of Type-17 collagen protein production in skin model cells; settings: Homo sapiens, 168 h, read-out: expression amount of Type-17 collagen, increase in comparison with the control
Procedure: as §2, §3

[3] = Water solubility test in distilled water
Procedure: as §1

| Structure (SMILES) | solubility (physchem) [µg/mL] | amount of Type-17 collagen contained in skin model cells, increase compared with the control (Ctrl) (Type-17 collagen [1]) [times] | fold induction at 25 µM (Type-17 collagen [2]) | fold induction at 50 µM (Type-17 collagen [2]) | solubility [3] [µg/mL] |
| --- | --- | --- | --- | --- | --- |
| COc1cc(/C=C/c2ccc(O[C@@H]3O[C@H](CO)[C@@H](O[C@H]4O[C@H](CO)[C@@H](O)[C@H](O)[C@H]4O)[C@H](O)[C@H]3O)cc2)cc(OC)c1 [pterostilbene diglycoside] | ~13 (≈ 22.4 µM) | 1.2 | – | – | – |
| COc1cc(/C=C/c2ccc(O[C@@H]3O[C@H](CO)[C@@H](O)[C@H](O)[C@H]3O)cc2)cc(OC)c1 [pterostilbene monoglycoside] | ~60 (≈ 143 µM) | – | ~1.4 | ~1.6 | – |
| COc1cc(/C=C/c2ccc(O[C@@H]3O[C@H](CO)[C@@H](O[C@H]4O[C@H](CO)[C@@H](O[C@H]5O[C@H](CO)[C@@H](O)[C@H](O)[C@H]5O)[C@H](O)[C@H]4O)[C@H](O)[C@H]3O)cc2)cc(OC)c1 [pterostilbene triglycoside] | ~300000 (≈ 404000 µM) | 1.6 | – | – | – |
| COc1cc(/C=C/c2ccc(O)cc2)cc(OC)c1 [pterostilbene, Pterostilbene] | – | – | ~1.1 | ~1.4 | ~5 (≈ 19.5 µM) |
